Target: T1, murine TLR9 (Mus musculus, UniProt Q9EQU3, L378S/Q579H/T325N/T573A/T867A)
T1 construct: additional primers were designed for amplification of the complete mouse TLR9 cDNA; expressed in transfected cells
T1 sequence (Q9EQU3 26-1032 T325N/L378S/T573A/Q579H/T867A): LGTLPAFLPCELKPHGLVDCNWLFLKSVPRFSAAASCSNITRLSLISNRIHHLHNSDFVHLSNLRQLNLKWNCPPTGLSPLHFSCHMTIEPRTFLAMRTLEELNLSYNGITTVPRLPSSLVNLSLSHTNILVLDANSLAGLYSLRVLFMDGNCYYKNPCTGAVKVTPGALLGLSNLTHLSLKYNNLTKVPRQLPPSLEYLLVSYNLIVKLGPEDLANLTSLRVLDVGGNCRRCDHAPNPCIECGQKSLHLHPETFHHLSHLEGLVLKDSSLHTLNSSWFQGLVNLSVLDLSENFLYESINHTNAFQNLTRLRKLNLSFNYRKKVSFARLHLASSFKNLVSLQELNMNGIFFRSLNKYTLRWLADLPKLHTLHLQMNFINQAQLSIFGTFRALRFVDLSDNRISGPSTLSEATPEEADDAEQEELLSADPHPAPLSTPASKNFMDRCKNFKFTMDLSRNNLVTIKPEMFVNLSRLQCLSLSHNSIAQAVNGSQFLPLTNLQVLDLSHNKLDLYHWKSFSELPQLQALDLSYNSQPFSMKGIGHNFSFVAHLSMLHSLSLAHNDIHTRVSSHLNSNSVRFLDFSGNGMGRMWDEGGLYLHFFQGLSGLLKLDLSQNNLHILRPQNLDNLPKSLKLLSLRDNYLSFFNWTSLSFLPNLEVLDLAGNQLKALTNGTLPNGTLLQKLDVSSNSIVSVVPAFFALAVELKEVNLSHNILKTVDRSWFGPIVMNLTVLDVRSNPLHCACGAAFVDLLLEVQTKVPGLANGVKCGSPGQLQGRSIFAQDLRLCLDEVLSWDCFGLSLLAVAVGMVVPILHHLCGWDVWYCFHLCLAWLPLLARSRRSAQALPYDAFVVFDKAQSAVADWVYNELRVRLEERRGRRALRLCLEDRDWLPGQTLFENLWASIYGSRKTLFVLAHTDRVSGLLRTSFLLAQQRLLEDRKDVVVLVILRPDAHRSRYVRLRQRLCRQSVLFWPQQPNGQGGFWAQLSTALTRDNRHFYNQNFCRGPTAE
Test: NF-κB-luciferase activation in 293 cells transfected with murine TLR9 (293-mTLR9-luc)
Type: cell-based
Conditions: for EC50: ODN concentration of half-maximal activation, 293-mTLR9-luc cells, NF-κB-driven luciferase readout, 12 hours, read-out: 293-mTLR9 Kac
Text: Human fibroblast 293 cells were transiently transfected with mTLR9 and the NF-κB-luc construct (FIG. 2). Similar data was obtained for IL-8 production (not shown). Thus expression of TLR9 (human or mouse) in 293 cells results in a gain of function for CpG-DNA stimulation similar to hTLR4 reconstitution of LPS responses.
To generate stable clones expressing human TLR9, murine TLR9, or either TLR9 with the NF-κB-luc reporter plasmid, 293 cells were transfected in 10 cm plates (2×10^6 cells/plate) with 16 μg of DNA and selected with 0.7 mg/ml G418 (PAA Laboratories GmbH, Cölbe, Germany). The clones were also screened for IL-8 production or NF-κB-luciferase activity after stimulation with ODN. Four different types of clones were generated. • 293-hTLR9-luc: expressing human TLR9 and 6-fold NF-κB-luciferase reporter • 293-mTLR9-luc: expressing murine TLR9 and 6-fold NF-κB-luciferase reporter • 293-hTLR9: expressing human TLR9 • 293-mTLR9: expressing murine TLR9
Similar results were obtained utilizing IL-8 production with the stable clone 293-hTLR9. 293-mTLR9-luc were also stimulated with CpG-ODN (1668, 2 μM; […], SEQ ID NO:84), GpC-ODN (1668-GC, 2 μM; […], SEQ ID NO:85), Me-CpG-ODN (1668 methylated, 2 μM; TCCATGAZGTTCCTGATGCT, Z=5-methylcytidine, SEQ ID NO:207), LPS (100 ng/ml) or media, as measured by monitoring NF-κB activation (FIG. 5). Similar results were obtained utilizing IL-8 production with the stable clone 293-mTLR9. Results are representative of at least two independent experiments. […] These cells can be used for screening of optimal ligands for innate immune responses driven by TLR9 in multiple species.
Because stable TLR9 transfectants mirrored primary cell responsiveness to CpG-DNA (FIGS. 4 and 5), it was hypothesized that stable transfectants could potentially discern species-specific CpG-motifs through TLR9 receptors. Therefore 293-hTLR9-luc (expressing human TLR9 and 6-fold NF-κB-luc reporter), 293-mTLR9-luc (expressing murine TLR9 and 6-fold NF-κB-luc reporter), 293-hTLR9 (expressing human TLR9) and 293-mTLR9 (expressing murine TLR9) clones were tested for CpG-DNA motif responsiveness. […] Depicted are both NF-κB-driven luciferase and IL-8 production as readout. […] After lysis of the cells luciferase can be detected photometrically based on an enzymatic reaction by luciferase which creates photons. IL-8 production was monitored using enzyme-linked immunosorbent assay (ELISA). […] Results shown in FIG. 11 are representative of three independent experiments. Strikingly, CpG-motif sequence specificity was conferred in a species-specific manner by TLR9. Additionally, the half-maximal concentration for either 2006 or 1668 appears nearly the same as those determined on primary cells (compare FIG. 10 and FIG. 11).
Although 2006 and 1668 are discussed in terms of CpG-motif differences, they are very different in several aspects (see Table 5 for comparison). The lengths are different, 24 versus 20 nucleotides, and 2006 has four CG dinucleotides compared to one in 1668. Additional differences are the CG position relative to the 5′ and 3′ ends and also 5′ sequence differences. In order to determine if motif specificity is a quality of the motif and not the global sequence environment, for this experiment several sequences were produced holding these variables constant. As a starting point, the 1668 sequence was modified by converting the central C to T and the distal TG to CG, thereby creating a second CG in the resulting sequence 5000 (SEQ ID NO:130, Table 5). Then point nucleotide changes were made, progressing toward a 2006-like sequence, 5007 (SEQ ID NO:98). The ODN 5002 (SEQ ID NO:132) is most like 1668 with the exception that C's at positions 12 and 19 have been converted to T's. […]

Sequence	EC50 [µM]	293-mTLR9 responsiveness (ACGTT versus ACGTC (5002 versus 5009))
TCCATGACGTCATTGATGTT (listed as DNA, chemistry not fully specified) [ODN 5010]	> 10	
TCCATGACGTCCTTGATGTT (listed as DNA, chemistry not fully specified) [ODN 5009]	> 10	completely destroyed 293-mTLR9 responsiveness
TCCATGACGTTATTGATGTT (listed as DNA, chemistry not fully specified) [ODN 5008]	0.04	

From patent US7820379B2, “Process for high throughput screening of CpG-based immuno-agonist/antagonist” (Coley Pharmaceutical GmbH, priority 2000, dated 2010)
